{"source": "patent US7371529B2", "about": "“Methods and compositions for modulating gluconeogenesis using PGC-1” (Dana-Farber Cancer Institute, Inc., priority 2001, dated 2008)", "key": {"[1]": {"tested_on": "G6 Pase, PEPCK and PGC-1 mRNA", "assay": "Insulin effect on mRNA levels and PGC-1 function in cultured liver cells", "type": "cell-based", "conditions": "for PGC-1 induced expression of PEPCK and glucose-6-phosphatase: cultured liver cells", "source_text": "This example describes experiments designed to determine whether insulin acts directly to suppress PGC-1 expression or function. The levels of PGC-1 mRNA were first examined in cells treated with various combinations of insulin, forskolin, and dexamethasone.\nHowever, PGC-1 function is negatively regulated by insulin in cultured liver cells. […] FKHR is regulated directly by Akt via phosphorylation. Stimulation by insulin results in activation of Akt, which phosphorylates FKHR, which in turn inactivates FKHR by causing it to exit the nucleus. Insulin treatment downregulates the ability of PGC-1 to induce the gluconeogenic genes PEPCK and glucose-6-phosphatase. PGC-1 induced expression of the genes was […] when a constitutively active FKHR was used, while a dominant-negative FKHR also downregulates the ability of PGC-1 to induce these genes, even in the absence of insulin."}, "[2]": {"tested_on": "gluconeogenic, ketogenic, and beta-oxidation genes", "assay": "Gene induction in control (floxed) or HNF-4α null primary hepatocytes", "type": "cell-based", "conditions": "presence and absence of HNF-4α", "source_text": "The ability of PGC-1 to induce mRNA expression of gluconeogenic, ketogenic, and beta-oxidation genes was examined in cells lacking HNF-4α. Control (floxed) or HNF-4α null cells (primary hepatocytes) were infected with adenoviruses containing GFP (control) or PGC-1 and were either untreated, serum-starved, or treated with dexamethasone and cAMP."}, "[3]": {"biological_target": "T1, HNF-4α (Homo sapiens, UniProt P41235)", "T1 construct": "made in house; host or cells: TNT reticulocyte lysate in vitro transcription/translation (Promega)", "T1 sequence (P41235 1-474)": "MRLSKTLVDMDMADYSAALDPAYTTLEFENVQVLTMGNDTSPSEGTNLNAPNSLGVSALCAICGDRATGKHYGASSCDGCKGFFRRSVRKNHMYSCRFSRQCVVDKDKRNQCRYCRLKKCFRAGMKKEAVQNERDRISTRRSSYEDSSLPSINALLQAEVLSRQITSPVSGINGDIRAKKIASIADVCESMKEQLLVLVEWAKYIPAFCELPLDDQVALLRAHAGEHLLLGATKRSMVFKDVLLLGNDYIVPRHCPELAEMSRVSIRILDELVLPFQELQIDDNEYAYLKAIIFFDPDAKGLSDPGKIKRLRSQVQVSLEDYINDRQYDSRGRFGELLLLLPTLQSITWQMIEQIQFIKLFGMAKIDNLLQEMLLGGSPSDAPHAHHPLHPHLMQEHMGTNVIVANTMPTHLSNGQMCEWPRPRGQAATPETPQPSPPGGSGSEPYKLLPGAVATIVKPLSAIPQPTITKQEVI", "assay": "Multimerized AF1 reporter assay in NIH 3T3 fibroblasts, HNF-4α", "type": "cell-based", "conditions": "NIH 3T3, no hormone or ligand added", "method": "(§1) NIH 3T3 or Fao hepatoma cells were cultured in 10% FBS-RPMI and transfected at 70-90% confluency using Fugene 6 (Roche). The ratio of DNA:Fugene was 1:2. Culture medium was changed after 24 hours. Cells were collected 48 hours after transfection and β-galactosidase and luciferase assays were performed. Transfections were performed in duplicate and repeated at least twice.\n(§2) To examine these functional interactions at the AF1 site with intact transcription factors, reporter gene assays were performed using PGC-1, wild-type HNF-4α and COUP-TF proteins, and a multimerized AF1 response element. To avoid interference with endogenous liver factors, these experiments were done in NIH 3T3 fibroblasts. Transfections were done as described above for FIG. 4. Neither HNF-4α, COUP-TF, nor PGC-1 activates these target sequences alone (FIG. 6)."}, "[4]": {"tested_on": "COUP-TF", "assay": "Multimerized AF1 reporter assay in NIH 3T3 fibroblasts, COUP-TF", "type": "cell-based", "method": "as §1, §2"}, "[5]": {"tested_on": "FKHR", "assay": "3×IRS promoter-luciferase reporter, FKHR coactivation", "type": "cell-based", "conditions": "PGC-1 cotransfected with wild-type or mutant FKHR"}, "[6]": {"tested_on": "G6 Pase promoter", "assay": "G6 Pase promoter-luciferase reporter in SV40 transformed hepatocytes", "type": "cell-based", "method": "PGC-1 and/or HNF-4α were cotransfected into SV40 transformed hepatocytes, and the ability to coactivate the glucose-6-phosphatase (G6 Pase) promoter was determined using a luciferase reporter gene. Experiments were performed in duplicate."}, "[7]": {"tested_on": "FKHR", "assay": "G6 Pase promoter-reporter, FKHR coactivation", "type": "cell-based", "conditions": "PGC-1 cotransfected with FKHR"}, "[8]": {"tested_on": "PGC-1 protein, glucose-6-phosphatase and PEPCK mRNA", "assay": "Adenovirus infusion in Wistar rats, liver immunoblot and Northern", "type": "in vivo", "conditions": "rat liver, adenoviral PGC-1", "method": "Male Wistar rats (Charles River) were fed with standard laboratory food and weighed 300-350 g at the time of the studies. Animals were anesthetized by injection of 0.1 ml per 100 g body mass of a solution containing 25 mg/ml of xylazine (Phoenix Scientific) and 0.5 mg/ml of acepromazine (Fermenta Animal Health). CMV-GFP and CMV-PGC-1 adenoviruses were purified by CsCl gradient centrifugation as described in Becker, T. et al. (1994) Methods Cell Biol. 43:161-189. Pure recombinant virus (1×10^12 plaque forming units), suspended in 0.5 ml of phosphate buffered saline (PBS), was injected into anesthetized rats through the tail vein. Animals were allowed to recover and were fed standard food ad libitum. Five days after adenovirus infusion, tail vein blood was collected at 14:00 for measurement of glucose concentration, using a β-glucose analyzer (HemoCue AB). After the measurement, animals were sacrificed. Blood samples were collected from the heart, centrifuged at 1300 g for 15 minutes at 4° C. in 15 ml centrifuge tubes containing 50 μl of 0.4 M EDTA, and stored at −20° C. before measurement of insulin concentrations with a rat insulin specific radioimmunoassay kit (Linco Research). Liver samples were collected, snap frozen in liquid nitrogen, and stored at −80° C. Aliquots of frozen liver samples were processed for northern blot or immunoblot analysis. […]"}, "[9]": {"tested_on": "PEPCK promoter", "assay": "PEPCK promoter-luciferase reporter assay in Fao hepatoma cells", "type": "cell-based, rat", "method": "as §1\nThe ability of PGC-1 to activate the PEPCK-promoter (using a luciferase reporter gene) in hepatoma cells was examined. Fao rat hepatoma cells were maintained in 10% FBS-RPMI and transfected in a 6 well format with 200 ng of pPL32-PEPCK-luciferase (or pGL3-PEPCK-luciferase), 100 ng CMV β-galactosidase, and […] of pCMV or pCMV-PGC-1 per well. Cells were harvested for luciferase assays 48 hours after transfection, and the readings were normalized by β-galactosidase activity. […] In the transient transfection assays described above, PGC-1 activated the wild-type PEPCK promoter-reporter gene by approximately 10-fold (FIG. 4).\nTo identify the regulatory elements mediating the effect of PGC-1 on this promoter, mutant constructs were utilized in which various regulatory elements within the PEPCK-luciferase reporter construct were substituted by a yeast Gal4 DNA binding element (FIG. 1; Wang, J. C. et al. (1999) Mol. Endocrinol. 13:604-618). […] However, mutation of the AF1 or AF3 site (or both) each reduced the PGC-1-mediated activation by 50-60%; a combination of the AF1-to-Gal4 substitution and additional block mutations in the GR binding sites (GR1, GR2) led to a small but significant further decrease. […] A replacement of the P3 (I) site, an element shared by the cAMP and thyroid hormone response units, by the Gal4 DNA binding element caused a modest (25%) reduction in the PGC-1 mediated activation of the PEPCK reporter. […] It also appears that there are other unidentified regulatory elements on the PEPCK promoter through which PGC-1 can produce a partial activation.\nThe AF1 and AF3 sites are both DR-1 type sequences that can bind several nuclear receptors. […] The AF3 element has also been associated with COUP-TF binding (Scott et al (1996) supra). […] Vectors encoding the Gal4 DBD, Gal4 DBD-HNF-4α, or Gal4 DBD-COUP-TF fusion proteins (500 ng per well) were cotransfected with the mutant receptors, containing a substitution of a particular element within the Gal4 DBD, to determine whether they can rescue the PGC-1 activity. […] In contrast, cotransfection of a Gal4-COUP-TF construct produced only a partial restoration (approximately 20-30% of that achieved by HNF-4α), and cotransfection of the Gal4 DBD alone had virtually no effect on the PGC-1 mediated activation. Very similar results were obtained at the AF3 site.\nThe role of the glucocorticoid response elements in the PEPCK promoter was also examined. […] Fao hepatoma cells were transfected as described above for FIG. 4. Dexamethasone (dex, 1 μM final concentration) was added for the final 24 hours."}, "[10]": {"tested_on": "PGC-1", "assay": "STZ-diabetic mouse, liver PGC-1 (Northern)", "type": "in vivo", "conditions": "STZ-diabetic mice, after 10 days", "method": "For the feeding experiments, male mice were either allowed free access to food or subjected to a 24 hour fast and sacrificed at the end of 24 hours. A third group was fasted for 24 hours and then fed ad libitum for another 24 hours prior to sacrifice. For the STZ-diabetic mouse experiments, 6-8 week old male mice (n=3 per group) were injected intraperitoneally for three consecutive days with either sodium citrate solution or streptozotocin ([…] of body weight per injection). Animals were sacrificed after 10 days, at which point the mean blood glucose in the STZ-treated group rose to over 400 mg/dl. For the LIRKO mouse experiments, two-month-old female control (lox/lox) or LIRKO mice were divided into three groups (n=2 each) and subjected to the standard feeding protocol as described above.\nTotal RNA was prepared from cells or tissues with Trizol (Life Technologies) according to the manufacturer's instructions. Ten to twenty micrograms of total RNA was fractionated in a 1% agarose-formaldehyde gel, transferred onto nylon, and hybridized with cDNA probes labeled by random-primed labeling (Boehringer Mannheim) with [-^32P]-dCTP, using methods known in the art. […]"}}}
{"molecule": "insulin", "values": [{"measurement": "G6 Pase mRNA levels", "setting": "[1]", "result": "downregulated"}, {"measurement": "PGC-1 mRNA levels", "setting": "[1]", "result": "do not change"}, {"measurement": "PGC-1 induced expression of PEPCK and glucose-6-phosphatase", "setting": "[1]", "result": "downregulates"}]}
{"molecule": "PGC-1: coactivator of nuclear receptors, expressed from transfected pCMV-PGC-1 or from adenovirus", "values": [{"measurement": "induction of gluconeogenic genes glucose-6-phosphatase and PEPCK", "setting": "[2]", "result": "in the presence, but not the absence, of HNF-4α"}, {"measurement": "coactivation of HNF-4α on multimerized AF1 response element", "setting": "[3]", "result": "dramatically coactivates"}, {"measurement": "coactivation of COUP-TF on multimerized AF1 response element", "setting": "[4]", "result": "no ability to coactivate"}, {"measurement": "activation of 3×IRS promoter-luciferase reporter", "setting": "[5]", "result": "can coactivate FKHR"}, {"measurement": "activation of G6 Pase promoter-luciferase reporter", "setting": "[6]; cotransfected with HNF-4α", "result": "strong coactivation"}, {"measurement": "activation of G6 Pase promoter-luciferase reporter", "setting": "[6]; transfected alone", "result": "no activation"}, {"measurement": "coactivation on wild type G6 Pase promoter-reporter", "setting": "[7]", "result": "coactivated FKHR"}, {"measurement": "liver PEPCK mRNA (Northern)", "setting": "[8]", "result": "increased expression"}, {"measurement": "liver mRNA for glucose-6-phosphatase (Northern)", "setting": "[8]", "result": "dramatic and uniform elevation"}, {"measurement": "activation of wild-type PEPCK promoter-reporter gene", "setting": "[9]; Fao cells, 1 mg pCMV-PGC-1 per well, 48 hours", "result": "approximately 10 fold"}, {"measurement": "reduction in PGC-1 mediated activation of the PEPCK reporter", "setting": "[9]; P3 (I) site replaced by Gal4 DNA binding element", "result": 25, "unit": "%"}, {"measurement": "coactivation of PEPCK promoter through the glucocorticoid receptor", "setting": "[9]; dexamethasone 1 μM for the final 24 hours", "result": "in a ligand dependant manner"}, {"measurement": "magnitude of PGC-1 activation", "setting": "[9]; mutation in the AF2 or the CRE site", "result": "did not produce an appreciable effect"}, {"measurement": "reduction of PGC-1-mediated activation", "setting": "[9]; mutation of the AF1 or AF3 site (or both)", "result": "50-60%"}]}
{"molecule": "CN(N=O)C(=O)N[C@H]1C(O)O[C@H](CO)[C@@H](O)[C@@H]1O", "note": "(mixture of isomers) [streptozotocin]", "values": [{"measurement": "PGC-1 in liver (Northern)", "setting": "[10]", "result": "consistently increased"}]}
{"molecule": "constitutively active FKHR: FKHR with three phosphorylatable amino acids changed to alanine (protein, UniProt Q12778 1-655, looked up, variant T24A S256A S319A) Forkhead box protein O1: MAEAPQVVEIDPDFEPLPRPRSCAWPLPRPEFSQSNSATSSPAPSGSAAANPDAAAGLPSASAAAVSADFMSNLSLLEESEDFPQAPGSVAAAVAAAAAAAATGGLCGDFQGPEAGCLHPAPPQPPPPGPLSQHPPVPPAAAGPLAGQPRKSSSSRRNAWGNLSYADLITKAIESSAEKRLTLSQIYEWMVKSVPYFKDKGDSNSSAGWKNSIRHNLSLHSKFIRVQNEGTGKSSWWMLNPEGGKSGKSPRRRAAAMDNNSKFAKSRSRAAKKKASLQSGQEGAGDSPGSQFSKWPASPGSHSNDDFDNWSTFRPRTSANASTISGRLSPIMTEQDDLGEGDVHSMVYPPSAAKMASTLPSLSEISNPENMENLLDNLNLLSSPTSLTVSTQSSPGTMMQQTPCYSFAPPNTSLNSPSPNYQKYTYGQSSMSPLPQMPIQTLQDNKSSYGGMSQYNCAPGLLKELLTSDSPPHNDIMTPVDPGVAQPNSRVLGQNVMMGPNSVMSTYGSQASHNKMMNPSSHTHPGHAQQTSAVNGRPLPHTVSTMPHTSGMNRLTQVKTPVQVPLPHPMQMSALGGYSSVSSCNGYGRMGLLHQEKLPSDLDGMFIERLDCDMESIIRNDLMDGDTLDFNFDNVLPNQSFPHSVKTTTHSWVSG", "values": [{"measurement": "PGC-1 induced expression of PEPCK and glucose-6-phosphatase", "setting": "[1]", "result": "unchanged"}, {"measurement": "activation of 3×IRS promoter-luciferase reporter", "setting": "[5]", "result": "increased activation"}, {"measurement": "coactivation on wild type G6 Pase promoter-reporter", "setting": "[7]", "result": "further increased"}]}
